The text below walks through data of article PMC12257535, “Distinct Interactions of Cannabinol and Its Cytochrome P450-Generated Metabolites with Receptors and Sensory Neurons” (Journal of Medicinal Chemistry, 2025).

Data set [1] in a line: In vivo metabolism of CBN in female mice, plasma levels by targeted LC/MS/MS. On the set-up: species or system C57BL/6 mice. The procedure: Initially dissolved in ethanol, CBN was combined with a volume of Tween 80, constituting 6% of the total solution volume for injection. Ethanol was eliminated via vacuum evaporation, and saline was added to prepare a 4 mg/mL solution. CBN (20 mg/kg) or vehicle was administered to C57BL/6 mice intravenously (IV) through the retro-orbital sinus or intraperitoneally (IP) at the lower right quadrant of the abdomen. Animals were euthanized at 30- or 120 min postinjection. Blood samples, collected via cardiac puncture into heparin tubes, underwent cold centrifugation at 4500 rpm for 15 min to isolate plasma. Plasma and whole liver samples were flash-frozen at −80 °C for subsequent analysis. Our decision to use female mice for this experiment was based on the availability of age-matched mice in the colony at the time of the experiment.
Mice were anaesthetized with a 3% inhalant dose of isoflurane until their respiratory rate decreased to 50% of baseline (i.e., 40–60 breaths/min) and the righting reflex was abolished. Mice were subsequently removed from the induction chamber and laid on their side. Using the index finger and thumb of the nondominant hand, the skin above and below the eye was retracted until a slight protrusion from the socket was noted. A 29G1/2 needle was inserted, bevel down, into the medial canthus at an approximate 45-degree angle until slight resistance was noted. Volume was slowly infused at a rate of 15uL/second. The needle was subsequently removed from the eye socket, and ophthalmic ointment was added.
Animals were gently restrained by scruff, and the injection site at the lower right quadrant of the abdomen was identified. The needle was inserted at a 60-degree angle to the body, and the plunger was lightly withdrawn to ensure the needle was not in contact with viscera or organs before dispensing volume.
200 μL plasma samples were collected and used for extraction using 1 mL of Hexane: Ethyl acetate (8:2 v/v) following a similar protocol described above.
Samples were analyzed using the Sciex QTrap 6500+ system (Framingham, MA) with Waters Acquity I- class plus UPLC. Software Analyst 1.7.1 was used for data acquisition.
The LC separation was performed on a Waters Acquity UPLC BEH column (2.1 × 100 mm, 1.7 μm) with mobile phase A (0.1% formic acid in water) and mobile phase B (0.1% formic acid in acetonitrile). The flow rate was 0.5 mL/min unless noted otherwise. The linear gradient was as follows: 0–0.5 min, 70%A; 2 min, 20%A; 4–4.2 min, 0%A; 4.21–5.2 min, 0%A (0.8 mL/min); 5.3–6.9 min, 70%A. The autosampler was set at 10 °C, and the column was kept at 50 °C. The injection volume was 5 μL.
Mass spectra were acquired under positive electrospray ionization (ESI) with the ion spray voltage of 4500 V. The source temperature was 500 °C. The curtain gas, ion source gas 1, and ion source gas 2 were 32, 50, and 70 psi, respectively. Multiple reaction monitoring (MRM) was used for quantitation with the MRM transition of CBN (m/z 311.2 → m/z 269.1), CBN-1′–OH (m/z 327.2 → m/z 253.1), CBN-11-OH (m/z 327.2 → m/z 128.1), CBN-p-quinone (m/z 325.2 → m/z 283.1) and EPEA-d4 as internal standard (m/z 350.3 → m/z 66.1).

In data set [2] the test system is human liver microsomes. Kind of data set: CBN metabolism by human liver microsomes, metabolite formation rate. It counts as in vitro ADME. The note with it: HLM, across different CBN concentrations. The procedure:
We carried out concentration-dependent metabolism of CBN in the presence of 2 CYPs: 2C9 and 2D6. For the experiment, we used an enzyme concentration of 0.5 μM, reconstituted in the lipid system of POPC: POPS (8:2 v/v), and CPR at 0.6 μM dissolved in 0.1 M potassium phosphate buffer for CYP2C9. The substrate CBN was used in a range of 5–80 μM. The reaction mixture was incubated at 37 °C for 10 min, and then NADPH was added (1 mM), allowing the reaction to proceed for an additional 30 min. We quenched the reactions using a mixture of Hexane: Ethyl Acetate (8:2 v/v) and used the same composition to extract the CBN metabolites. We did a total extraction for three cycles. Following the extractions, the extractions were dried under a continuous stream of nitrogen, and the residual products were finally dissolved in 90% ethanol. We used CYP2D6 in a nanodisc for the metabolism of CBN. […] We carried out the same protocol for the metabolism of CBN using 1 μg of human liver microsome, CPR (0.6 μM) and NADPH (1 mM).
Samples were analyzed with the Sciex QTrap 6500+ system (Framingham, MA) with Waters Acquity I-class plus UPLC. Software Analyst 1.7.1 was used for data acquisition.
The LC separation was performed on a Waters Acquity UPLC BEH column (2.1 × 100 mm, […]) with mobile phase A (0.1% formic acid in water) and mobile phase B (0.1% formic acid in acetonitrile). The flow rate was 0.5 mL/min unless noted otherwise. […]
(§1) Mass spectra were acquired under positive electrospray ionization (ESI) with the ion spray voltage of 4500 V. The source temperature was 500 °C. […] Multiple reaction monitoring (MRM) was used for quantitation, as described in transitions CBN (m/z 311.2 → m/z 205.1), CBN-1′–OH (m/z 327.2 → m/z 253.1), CBN-11-OH (m/z 327.2 → m/z 291.1), CBN-p-quinone (m/z 325.2 → m/z 283.1) and CBC-d9 as internal standard (m/z 324.2→ m/z 202.1).
(§2) All data were analyzed using the software Skyline (daily version 22.2.1.278). […]

The target in data set [3] is T1, CYP2D6 (Homo sapiens, UniProt P10635).
T1 construct: polyhistidine (inferred from Ni-NTA purification and histidine elution); made in house; host or cells: E. coli (inferred from the pCWori vector and lysozyme/spheroplast preparation)
T1 sequence (P10635 with tags, fused parts or gaps limits assumed): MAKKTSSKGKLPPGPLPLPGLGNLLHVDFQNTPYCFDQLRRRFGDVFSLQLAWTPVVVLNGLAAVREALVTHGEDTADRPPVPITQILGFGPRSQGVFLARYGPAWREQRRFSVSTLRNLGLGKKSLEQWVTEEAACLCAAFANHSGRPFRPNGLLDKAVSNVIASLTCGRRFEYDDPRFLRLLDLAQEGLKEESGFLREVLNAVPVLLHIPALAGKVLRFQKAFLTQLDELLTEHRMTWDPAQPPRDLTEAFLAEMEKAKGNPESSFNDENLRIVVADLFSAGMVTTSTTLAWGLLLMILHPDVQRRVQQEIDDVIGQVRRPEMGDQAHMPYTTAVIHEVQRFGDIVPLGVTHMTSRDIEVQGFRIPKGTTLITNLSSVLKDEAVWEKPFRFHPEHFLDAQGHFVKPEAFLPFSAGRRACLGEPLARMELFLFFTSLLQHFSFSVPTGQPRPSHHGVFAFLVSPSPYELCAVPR
Briefly: CYP2D6 (nanodisc)-mediated CBN metabolism, kinetics of metabolite formation. It is filed as in vitro ADME. As for the experimental part: We carried out concentration-dependent metabolism of CBN in the presence of 2 CYPs: 2C9 and 2D6. For the experiment, we used an enzyme concentration of 0.5 μM, reconstituted in the lipid system of POPC: POPS (8:2 v/v), and CPR at 0.6 μM dissolved in 0.1 M potassium phosphate buffer for CYP2C9. The substrate CBN was used in a range of 5–80 μM. The reaction mixture was incubated at 37 °C for 10 min, and then NADPH was added (1 mM), allowing the reaction to proceed for an additional 30 min. We quenched the reactions using a mixture of Hexane: Ethyl Acetate (8:2 v/v) and used the same composition to extract the CBN metabolites. We did a total extraction for three cycles. […]
Samples were analyzed with the Sciex QTrap 6500+ system (Framingham, MA) with Waters Acquity I-class plus UPLC. […]
as §1, §2

Data set [4] has as its system NO. Briefly: NO levels in LPS-stimulated BV2 microglial cells. The following applies: for change in NO levels compared to cells with only LPS treatment: LPS-stimulated BV2, 1, 2.5 and 5 μM. It counts as cell-based. The procedure: (§3) The BV2 microglial cells were subjected to the treatment of LPS both in the absence and presence of CBN and its selected metabolites. The seeding density for this assay was 1 × 10^5 cells/well. The cells were initially treated with the molecules for 4 h before being stimulated with LPS (25 ng/mL). The NO assay was performed 24 h after the treatment with LPS. The NO assay was performed according to the manufacturer’s protocol, and NO levels were quantified using nitrate standard curves. For the assay, 50 μL of cell media was used in a 96-well plate, and the absorbance was recorded at 540 nm. All measurements were performed in n = 5.

The subject of data set [5] is IL-6. Briefly: IL-6 ELISA in LPS-stimulated BV2 microglial cells. It is filed as cell-based. As for the experimental part:
as §3
(§4) ELISA assays of IL-6, IL-10 (Item No. 88–7105), and Arginase 1 were performed using the same supernatant with which we had completed the NO and LDH assays. The culture media was collected, and the IL-6 (Thermo Scientific) and Arginase 1 (abcam) assays were performed using the specific monoclonal antibodies as per the manufacturer’s instructions.

For data set [6], the system named is IL-10. Briefly: IL-10 ELISA in LPS-stimulated BV2 microglial cells. The following applies: LPS-stimulated BV2, 1–5 μM. It counts as cell-based. As for the experimental part: as §3, §4
Data set [7] deals with Arginase 1. Briefly: Arginase 1 ELISA in LPS-stimulated BV2 microglial cells. It counts as cell-based. The procedure:
as §3, §4

The target of data set [8] is T2, CB1 receptor (Homo sapiens, UniProt P21554). Kind of data set: G protein nanoBRET assay, agonist mode, CB1 receptor. The note with it: 10 μM, ΔBRET; confirmed by concentration–response, only at high concentrations.
T2 sequence (P21554 whole entry): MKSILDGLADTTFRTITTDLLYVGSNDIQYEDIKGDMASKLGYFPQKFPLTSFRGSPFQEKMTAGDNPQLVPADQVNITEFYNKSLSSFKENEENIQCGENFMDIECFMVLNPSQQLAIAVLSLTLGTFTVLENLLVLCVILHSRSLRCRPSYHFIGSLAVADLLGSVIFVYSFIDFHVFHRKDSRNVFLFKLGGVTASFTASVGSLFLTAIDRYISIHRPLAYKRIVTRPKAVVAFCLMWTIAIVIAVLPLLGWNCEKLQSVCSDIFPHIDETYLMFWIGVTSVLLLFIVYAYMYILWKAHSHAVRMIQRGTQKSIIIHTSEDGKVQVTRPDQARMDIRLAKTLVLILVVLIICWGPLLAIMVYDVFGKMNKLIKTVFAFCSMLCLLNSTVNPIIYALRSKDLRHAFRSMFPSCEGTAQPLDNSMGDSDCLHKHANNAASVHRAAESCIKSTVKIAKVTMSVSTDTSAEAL
Data set [9] deals with CB2 receptor (Homo sapiens, UniProt P34972). Briefly: G protein nanoBRET assay, antagonist mode, CB2 receptor. The note with it: 50 μM after pretreatment with 1 μM CP-55940.
CB2 receptor, sequence (P34972 whole entry): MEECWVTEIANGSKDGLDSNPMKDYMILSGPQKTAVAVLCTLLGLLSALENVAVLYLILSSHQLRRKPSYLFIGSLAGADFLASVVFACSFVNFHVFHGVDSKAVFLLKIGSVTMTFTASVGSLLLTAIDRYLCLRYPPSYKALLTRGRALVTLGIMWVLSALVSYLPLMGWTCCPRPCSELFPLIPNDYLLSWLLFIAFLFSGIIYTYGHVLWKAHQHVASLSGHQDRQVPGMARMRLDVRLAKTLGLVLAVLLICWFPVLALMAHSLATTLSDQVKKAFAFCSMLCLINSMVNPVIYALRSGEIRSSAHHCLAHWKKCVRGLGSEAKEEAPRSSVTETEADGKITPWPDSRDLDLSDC
For data set [10], the system named is DRG neurons. Briefly: Calcium responses of cultured DRG sensory neurons. The note with it: cultured mouse DRG neurons, 50 μM × 15 s. It is filed as cell-based. As for the experimental part:
9 CBN and 11-OH CBN activate DRG neurons with similar response magnitudes but differ in their percentage of neurons activated and time to peak response. Calcium response traces of representative cultured mouse DRG neurons following application of CBN (A) and 11-OH CBN (B) 50 μM × 15 s (arrow). […] Mean value ± SEM (CBN: n = 59; 11-OH CBN: n = 29, two-tailed t test, Prism GraphPad).

For data set [11], the target named is CB1 receptors. On the set-up: method as in ref 10 (Rhee et al., citation mark lost in text). The following applies: COS-7 cell lines; ref 10 (Rhee et al.); cited from earlier work.
For data set [12], the target named is CB2 receptors. More on the design: method as in ref 10 (Rhee et al., citation mark lost in text). The note with it: COS-7 cell lines; ref 10 (Rhee et al.); cited from earlier work.
Data set [13] deals with TRPV4. More on the design: method as in ref 11 (De Petrocellis et al., citation mark lost in text). The following applies: ref 11 (De Petrocellis et al.); cited from earlier work.
Data set [14] deals with TRP channel. On the set-up: method as in ref 11 (De Petrocellis et al., citation mark lost in text). The note with it: stimulation by 1 mM carvacrol; ref 11 (De Petrocellis et al.); read-out: IC50, prevention of intracellular calcium increase upon carvacrol; cited from earlier work.
For data set [15], the target named is T3, CYP3A4 (Homo sapiens, UniProt P08684, S18F). Kind of data set: NADPH oxidation assay with CYP3A4 nanodisc and CPR. The following applies: triplicate.
T3 sequence (P08684 with tags, fused parts or gaps S18F limits assumed): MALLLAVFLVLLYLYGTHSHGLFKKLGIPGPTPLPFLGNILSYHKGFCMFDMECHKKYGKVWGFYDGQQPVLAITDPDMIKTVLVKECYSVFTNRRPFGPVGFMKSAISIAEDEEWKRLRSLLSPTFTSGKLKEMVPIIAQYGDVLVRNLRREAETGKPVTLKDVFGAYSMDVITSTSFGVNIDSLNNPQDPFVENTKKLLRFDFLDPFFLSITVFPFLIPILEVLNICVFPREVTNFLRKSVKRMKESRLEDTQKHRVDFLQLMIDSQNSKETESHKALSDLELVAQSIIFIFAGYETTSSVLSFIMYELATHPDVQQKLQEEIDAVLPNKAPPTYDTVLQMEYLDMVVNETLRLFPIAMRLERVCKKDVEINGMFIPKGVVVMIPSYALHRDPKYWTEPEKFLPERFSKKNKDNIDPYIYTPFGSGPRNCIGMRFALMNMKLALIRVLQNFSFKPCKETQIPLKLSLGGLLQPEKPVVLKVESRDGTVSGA
Data set [16] deals with T2, CB1 receptor. Kind of data set: G protein nanoBRET assay, antagonist mode, CB1 receptor. The note with it: 50 μM after pretreatment with 1 μM CP-55940.
The target in data set [17] is T3, CYP3A4. Kind of data set: CYP3A4-mediated CBN metabolism. The following applies: targeted and untargeted metabolomics. On the set-up: polyhistidine (C); made in house; host or cells: E. coli DH5alpha. It is filed as in vitro ADME.

Turning to `CCCC[C@H](O)c1cc(O)c2c(c1)OC(C)(C)c1ccc(C)cc1-2` [CBN-1′–OH, 3-(1-hydroxypentyl)-6,6,9-trimethyl-6H-benzo[c]chromen-1-ol], the “reduction of plasma level between 0.5 and 2 h” value (“reduction” below) in data set [1] (IV administration of CBN) turned out to be 3 fold. For the same compound, the “rate of metabolite formation from CBN” value in [2] is on record as 9–9.4 × 10^3 pmol/min/nmol. Also, the “formation of metabolite by CYP2D6” value in [3] is recorded as “did not detect the formation”. For the same compound, the “change in NO levels compared to cells with only LPS treatment” value in data set [4] was “no detectable significant (ns) change”. In addition, in [5] (LPS-stimulated BV2, concentration not stated), the IL-6 production entry is “decrease in IL-6 production”. For the same compound, in [6], the IL-10 levels result is recorded as “reversed”. The Arginase1 levels entry in data set [7] is listed as “slight increase in Arginase1 levels”. Further, the “agonist effect at CB1 receptor, Gαo activation” value in data set [8] is given as “partial agonist effect”. Also, the “inhibition of CB2 receptor” value in data set [9] is “inverse agonist effect”.
In the case of `CCCCCc1cc(O)c2c(c1)OC(C)(C)c1ccc(C)cc1-2` [CBN, Cannabinol], the “reduction” value in [1] (IP administration of CBN) is 3 fold. For the same compound, in data set [1] (IV administration of CBN), the “reduction” value was roughly 3 fold. Further, in [1] (female mice, CBN 20 mg/kg, plasma), the “amount of CBN available in plasma, intravenous relative to intraperitoneal” value came out at 3.0 times. Moreover, the “production of NO” value in data set [4] (LPS-stimulated BV2, 5 μM) is given as “slightly lower production of NO”. Also, the “change in NO levels compared to cells with only LPS treatment” value in [4] is listed as “no detectable significant (ns) change”. The IL-6 levels entry in [5] (LPS-stimulated BV2, 5 μM) was “reduction in IL-6 levels”. For the same compound, in data set [6], the IL-10 levels result is reported as “concentration-dependent increase in IL-10 levels”. In addition, the Arginase1 levels result in data set [7] is reported as “slight increase in Arginase1 levels”. In [10], the “Ca2+ response (%)” value is 38.9 ± 4.3%, the “DRG neuron activation (%)” value was found to be 29.3 ± 4.9%, the “Response Time” value was 40.7 ± 4.8 s and the “percentage of DRG neurons activated” value amounted to 29.3 ± 4.9%. Besides, the “time to peak response” value in data set [10] was 40.7 ± 4.8 s. In addition, the inhibitory constant (Ki) in data set [11] was 211 ± 35 nM. In data set [12], the Ki was 126 ± 26 nM. In addition, the “efficacy in activating TRPV4 compared to ionomycin” value in data set [13] is on record as 15.3–26.1%. For the same compound, the IC50 in [14] was 9400 ± 100 nM. The “rate of NADPH oxidation in the presence of the compound” value in [15] amounted to 249.731±14625 nmol/min/nmol. Also, the “inhibition of CB1 activation” value in data set [16] was “significant but partial inhibition”. The “inhibition of CB2 receptor” value in data set [9] was “partial inhibition”. Further, the “metabolism of CBN by CYP3A4” value in data set [17] is recorded as “did not metabolize”.
